Test [1] concerns the target hCB2 receptor (Homo sapiens, UniProt P34972). In words: Agonism of CB2 by detection of cAMP using HTRF. The settings on record: for Emax: normalized to DMSO and maximal activation (5 nM CP55940). Format: cell-based. As to the method:
(§1) Method for Assaying Agonism of CB1 or CB2 by Detection of cAMP Using Homogeneous Time-Resolved Fluorescence (HTRF®)
(§2) CHOP-K1 cells stably expressing the CB1 receptor (PerkinElmer, ES-110-C) or the CB2 receptor (PerkinElmer, ES-111-CF) were seeded into 384 well white TC-treated plates (Greiner 781080) at 7000 cells per well in Ham's media (Gibco #31765-035) supplemented with 10% FBS (Gibco #16000-044) and 500 μg/mL Geneticin (Gibco #10131-027) and cultured overnight. The next day, plates were washed one time in assay buffer (HBSS with Ca^2+ and Mg^2+ (Corning #21-023-CV)+20 mM HEPES (Corning #25-060-Cl) and 0.01% BSA (Sigma A2153)). In a separate compound plate (Greiner 781201-906), 50 nL of test compound or DMSO was transferred using the Echo 550 (Labcyte), then 40 μL/well of assay buffer with 0.5 mM IBMX, 2 μM Forskolin (Sigma F3917), and 0.01% BSA was added. For the CB1 assay, assay buffer was dumped from the cell plate and fresh assay buffer containing 0.5 mM IBMX (Sigma I5679) was added at 30 μL/well, and the plate was incubated for 1 hr at 37° C., 5% CO2. Following the IBMX pre-treatment step, buffer was dumped from the cell plate, and 20 μL/well of the assay buffer with test compound was transferred into the cell plate with a subsequent incubation of 20 min at room temperature. Reagents for cAMP detection (cisbio 62AM4PEJ) were prepared and subsequently transferred to the cell plate at 20 μL/well. Following a 1 hr incubation at room temperature, the plate was read on the Pherastar FX (BMG, excitation 320 nm, detection at 620 nm (donor) and 665 nm (acceptor)). The ratio of signal at 665 nm/620 nm was determined for each well in the plate. For each assay day, a cAMP standard curve was run in parallel to assess the range of response and determine the concentration of cAMP in each well. Control wells (n=16 of each) with no activation of CB1 receptor (DMSO) and maximal activation (5 nM CP55940, Sigma) were used to normalize the data and to determine signal-to-background ratio and Z′. For the CB2 assay, conditions were as described above for the CB1 assay, except that the IBMX preincubation step was not used and that the 20 min compound incubation step occurred in the incubator at 37° C., 5% CO2.
(§3) EC50 values were calculated from dose response curves by nonlinear regression analysis using PRISM software.
(§4) Representative compounds of the present invention were tested according to the procedures described in Biological Example 1 above, with results as listed in Table 3, below. If a compound was tested more than once (due to multiple samples or batches), then the value listed in Table 3 below represents the average of the measured values.
On the technique in general: In TR-FRET formats the signal depends on donor and acceptor labels being close together.

Test [2] has as its target hCB1 receptor (Homo sapiens, UniProt P21554). The experiment in a line: Agonism of CB1 by detection of cAMP using HTRF. The settings on record: for Emax: normalized to DMSO and maximal activation (5 nM CP55940). The class given is cell-based. The method, then:
as §1, §2, §3, §4

[3] abbreviates: CHO cells stably expressing CB2 receptor, cAMP HTRF, forskolin-stimulated, average if tested more than once, read-out: hCB2 CHO EC50.
Setting [4] is: CHO cells stably expressing CB2 receptor.
Where [5] appears, read: CHO cells stably expressing CB1 receptor, cAMP HTRF, forskolin-stimulated, average if tested more than once, read-out: hCB1 CHO EC50.
Where [6] appears, read: CHO cells stably expressing CB1 receptor.

Where two headings read alike, the source gives them in different places.

In patent US20240109910A1, “HEXAHYDRO-5,8-EPOXYCYCLOHEPTA[c]PYRAZOLE DERIVATIVES USEFUL AS MODULATORS OF THE CB1 AND / OR CB2 RECEPTORS” (JANSSEN PHARMACEUTICA NV, priority 2019, published 2024) one finds EC50 and Emax data, which are given here for 18 molecules.

Chain of hCB2 receptor (P34972 whole entry): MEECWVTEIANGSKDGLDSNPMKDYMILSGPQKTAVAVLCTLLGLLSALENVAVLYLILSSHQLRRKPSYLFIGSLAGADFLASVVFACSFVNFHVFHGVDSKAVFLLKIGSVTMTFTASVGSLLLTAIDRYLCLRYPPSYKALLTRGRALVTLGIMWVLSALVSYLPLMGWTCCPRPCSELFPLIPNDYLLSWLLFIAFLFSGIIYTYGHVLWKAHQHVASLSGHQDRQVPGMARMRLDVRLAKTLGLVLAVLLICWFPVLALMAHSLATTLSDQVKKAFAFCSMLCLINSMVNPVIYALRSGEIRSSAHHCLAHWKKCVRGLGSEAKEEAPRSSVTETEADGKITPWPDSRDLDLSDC
Chain of hCB1 receptor (P21554 whole entry): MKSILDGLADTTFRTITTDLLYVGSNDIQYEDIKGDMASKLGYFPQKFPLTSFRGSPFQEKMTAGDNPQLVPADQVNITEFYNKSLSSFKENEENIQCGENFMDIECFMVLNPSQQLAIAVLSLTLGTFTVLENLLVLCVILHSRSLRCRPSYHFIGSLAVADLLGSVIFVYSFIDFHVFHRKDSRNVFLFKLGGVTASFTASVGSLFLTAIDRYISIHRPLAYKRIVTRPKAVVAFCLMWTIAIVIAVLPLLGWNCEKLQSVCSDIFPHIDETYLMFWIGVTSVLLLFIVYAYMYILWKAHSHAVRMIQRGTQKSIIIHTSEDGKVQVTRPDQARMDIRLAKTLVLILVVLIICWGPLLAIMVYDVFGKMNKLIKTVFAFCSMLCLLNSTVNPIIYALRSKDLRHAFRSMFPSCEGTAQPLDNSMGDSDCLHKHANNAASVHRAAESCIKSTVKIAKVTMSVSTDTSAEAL

As a reminder, the EC50 is the concentration at which the effect is half-maximal. What is called Emax is the size of the effect at its maximum, as opposed to the concentration needed. Turning to `CC(C)(C)[C@@H](CO)NC(=O)c1nn(-c2cnccn2)c2c1C[C@H]1CC[C@@H]2O1` [Compound 8, (5R,8S)-N-((S)-1-hydroxy-3,3-dimethylbutan-2-yl)-1-(pyrazin-2-yl)-1,4,5,6,7,8-hexahydro-5,8-epoxycyclohepta[c]pyrazole-3-carboxamide], the 50% effective concentration (EC50) in test [1] (setting [3]) worked out at 0.09 nM; in test [2] (setting [5]) it was 422 nM. Besides, the Emax in test [1] (setting [4]) was 100%; in test [2] (setting [6]), 111%.

Turning to `O=C(NC1(C(F)(F)F)CCC1)c1nn(-c2cnccn2)c2c1CC1CCC2O1` (stereo not drawn) [Compound 10, 1-(pyrazin-2-yl)-N-(1-(trifluoromethyl)cyclobutyl)-1,4,5,6,7,8-hexahydro-5,8-epoxycyclohepta[c]pyrazole-3-carboxamide], the EC50 in test [1] (setting [3]) is 0.04 nM; in test [2] (setting [5]) it was 571 nM. The Emax amounted to 100% in test [1] (setting [4]) and 90.3% in test [2] (setting [6]).

In the case of `O=C(NC12CC(C1)C2)c1nn(-c2cnccn2)c2c1CC1CCC2O1` (stereo not drawn) [Compound 12, N-(bicyclo[1.1.1]pentan-1-yl)-1-(pyrazin-2-yl)-1,4,5,6,7,8-hexahydro-5,8-epoxycyclohepta[c]pyrazole-3-carboxamide], the results for the concentration giving a half-maximal response (EC50) in test [1] (setting [3]) and in test [2] (setting [5]) were 0.24 nM and 1510 nM, respectively. The results for the Emax in test [1] (setting [4]) and in test [2] (setting [6]) were 99.5% and 90.8%, respectively.

For `O=C(NC12CC3CC(CC1C3)C2)c1nn(-c2cnccn2)c2c1CC1CCC2O1` [Compound 13, N-((2R,3as,5S,6as)-hexahydro-2,5-methanopentalen-3a(1H)-yl)-1-(pyrazin-2-yl)-1,4,5,6,7,8-hexahydro-5,8-epoxycyclohepta[c]pyrazole-3-carboxamide], the results for the EC50 in test [1] (setting [3]) and in test [2] (setting [5]) were 0.02 nM and 16.6 nM, respectively. The Emax was 100% in test [1] (setting [4]) and 111% in test [2] (setting [6]).

In the case of `O=C(NC12CCC(CC1)CC2)c1nn(-c2cnccn2)c2c1CC1CCC2O1` (stereo not drawn) [Compound 14, N-(bicyclo[2.2.2]octan-1-yl)-1-(pyrazin-2-yl)-1,4,5,6,7,8-hexahydro-5,8-epoxycyclohepta[c]pyrazole-3-carboxamide], the EC50 was determined as 0.06 nM in test [1] (setting [3]) and 61.8 nM in test [2] (setting [5]). The maximal effect (Emax) in test [1] (setting [4]) was 100%; in test [2] (setting [6]), 103%.

As to `CC(C)(C)[C@@H](CO)NC(=O)c1nn(-c2c[n+]([O-])ccn2)c2c1C[C@H]1CC[C@@H]2O1` [Compound 16, 3-((5R,8S)-3-(((S)-1-hydroxy-3,3-dimethylbutan-2-yl)carbamoyl)-5,6,7,8-tetrahydro-5,8-epoxycyclohepta[c]pyrazol-1(4H)-yl)pyrazine 1-oxide], the EC50 came to 0.09 nM in test [1] (setting [3]) and 352 nM in test [2] (setting [5]). For the same molecule, the values for the Emax in test [1] (setting [4]) and in test [2] (setting [6]) were 101% and 91.3%, respectively.

Regarding `O=C(NC1(C(F)(F)F)CCC1)c1nn(-c2c[n+]([O-])ccn2)c2c1CC1CCC2O1` (stereo not drawn) [Compound 18, 3-(3-((1-(trifluoromethyl)cyclobutyl)carbamoyl)-5,6,7,8-tetrahydro-5,8-epoxycyclohepta[c]pyrazol-1(4H)-yl)pyrazine 1-oxide], the results for the EC50 in test [1] (setting [3]) and in test [2] (setting [5]) were 0.04 nM and 198 nM, respectively. In addition, the Emax in test [1] (setting [4]) was found to be 99.9%; in test [2] (setting [6]), 90.7%.

As to `O=C(NC12CC(C1)C2)c1nn(-c2c[n+]([O-])ccn2)c2c1CC1CCC2O1` (stereo not drawn) [Compound 20, 3-(3-(bicyclo[1.1.1]pentan-1-ylcarbamoyl)-5,6,7,8-tetrahydro-5,8-epoxycyclohepta[c]pyrazol-1(4H)-yl)pyrazine 1-oxide], the figures for the EC50 in test [1] (setting [3]) and in test [2] (setting [5]) were 0.05 nM and 1780 nM, respectively. The maximum response (Emax) came out at 100% in test [1] (setting [4]) and 91% in test [2] (setting [6]).

Regarding `O=C(NC12CC3CC(CC1C3)C2)c1nn(-c2c[n+]([O-])ccn2)c2c1CC1CCC2O1` [Compound 21, 3-(3-(((2R,3as,5S,6as)-hexahydro-2,5-methanopentalen-3a(1H)-yl)carbamoyl)-5,6,7,8-tetrahydro-5,8-epoxycyclohepta[c]pyrazol-1(4H)-yl)pyrazine 1-oxide], the EC50 in test [1] (setting [3]) came to 0.02 nM; in test [2] (setting [5]) it was 28.2 nM. Besides, the Emax in test [1] (setting [4]) came out at 99.9%; in test [2] (setting [6]), 94.9%.

Turning to `O=C(NC12CCC(CC1)CC2)c1nn(-c2c[n+]([O-])ccn2)c2c1CC1CCC2O1` (stereo not drawn) [Compound 22, 3-(3-(bicyclo[2.2.2]octan-1-ylcarbamoyl)-5,6,7,8-tetrahydro-5,8-epoxycyclohepta[c]pyrazol-1(4H)-yl)pyrazine 1-oxide], the concentration giving a half-maximal response (EC50) in test [1] (setting [3]) worked out at 0.02 nM; in test [2] (setting [5]) it was 48.5 nM. Further, the Emax in test [1] (setting [4]) came to 99.7%; in test [2] (setting [6]) it was 96.5%.

As to `CC(C)(C)c1cnc(-c2nn(-c3c[n+]([O-])ccn3)c3c2CC2CCC3O2)s1` (stereo not drawn) [Compound 24, 3-(3-(5-(tert-butyl)thiazol-2-yl)-5,6,7,8-tetrahydro-5,8-epoxycyclohepta[c]pyrazol-1(4H)-yl)pyrazine 1-oxide], the values for the EC50 in test [1] (setting [3]) and in test [2] (setting [5]) were 0.06 nM and 65.7 nM, respectively. Also, the Emax stood at 97.8% in test [1] (setting [4]) and 95.5% in test [2] (setting [6]).

Turning to `CCC(C)(C)c1noc(-c2nn(-c3c[n+]([O-])ccn3)c3c2CC2CCC3O2)n1` (stereo not drawn) [Compound 25, 3-(3-(3-(tert-pentyl)-1,2,4-oxadiazol-5-yl)-5,6,7,8-tetrahydro-5,8-epoxycyclohepta[c]pyrazol-1(4H)-y)pyrazine 1-oxide], the EC50 in test [1] (setting [3]) was 0.02 nM; in test [2] (setting [5]), 114 nM. The maximal effect (Emax) in test [1] (setting [4]) came to 99.5%; in test [2] (setting [6]), 98.9%.

As to `CC(C)(C)c1noc(-c2nn(-c3c[n+]([O-])ccn3)c3c2CC2CCC3O2)n1` (stereo not drawn) [Compound 26, 3-(3-(3-(tert-butyl)-1,2,4-oxadiazol-5-yl)-5,6,7,8-tetrahydro-5,8-epoxycyclohepta[c]pyrazol-1(4H)-yl)pyrazine 1-oxide], the EC50 worked out at 0.13 nM in test [1] (setting [3]) and 4920 nM in test [2] (setting [5]). Moreover, the values for the Emax in test [1] (setting [4]) and in test [2] (setting [6]) were 100% and 73.3%, respectively.

Regarding `CC(C)(C)c1nnc(-c2nn(-c3c[n+]([O-])ccn3)c3c2CC2CCC3O2)s1` (stereo not drawn) [Compound 27, 3-(3-(5-(tert-butyl)-1,3,4-thiadiazol-2-yl)-5,6,7,8-tetrahydro-5,8-epoxycyclohepta[c]pyrazol-1(4H)-yl)pyrazine 1-oxide], the figures for the concentration for a half-maximal effect (EC50) in test [1] (setting [3]) and in test [2] (setting [5]) were 0.06 nM and 130 nM, respectively. Further, the Emax amounted to 99% in test [1] (setting [4]) and 94.9% in test [2] (setting [6]).

For `CC(C)(C)c1nnc(-c2nn(-c3c[n+]([O-])ccn3)c3c2CC2CCC3O2)o1` (stereo not drawn) [Compound 29, 3-(3-(5-(tert-butyl)-1,3,4-oxadiazol-2-yl)-5,6,7,8-tetrahydro-5,8-epoxycyclohepta[c]pyrazol-1(4H)-yl)pyrazine 1-oxide], the EC50 in test [1] (setting [3]) amounted to 0.2 nM; in test [2] (setting [5]), 2370 nM. Moreover, the Emax was found to be 101% in test [1] (setting [4]) and 79.3% in test [2] (setting [6]).

For the molecule `CC(C)(C)NC(=O)c1nn(-c2c[n+]([O-])ccn2)c2c1CC1CCC2O1` (stereo not drawn) [Compound 31, 3-(3-(tert-butylcarbamoyl)-5,6,7,8-tetrahydro-5,8-epoxycyclohepta[c]pyrazol-1(4H)-yl)pyrazine 1-oxide], the EC50 in test [1] (setting [3]) was determined as 0.33 nM; in test [2] (setting [5]), 1430 nM. Further, the figures for the Emax in test [1] (setting [4]) and in test [2] (setting [6]) were 99.7% and 83.2%, respectively.

For the molecule `CC(C)(C)c1noc(-c2nn(-c3cnccn3)c3c2CC2CCC3O2)n1` (stereo not drawn) [Compound 37, 3-(3-(tert-butyl)-1,2,4-oxadiazol-5-yl)-1-(pyrazin-2-yl)-1,4,5,6,7,8-hexahydro-5,8-epoxycyclohepta[c]pyrazole], the half-maximal effective concentration (EC50) turned out to be 0.22 nM in test [1] (setting [3]) and 177 nM in test [2] (setting [5]). Moreover, the values for the Emax in test [1] (setting [4]) and in test [2] (setting [6]) were 99.2% and 34.8%, respectively.

`CC(C)(C)c1nnc(-c2nn(-c3cnccn3)c3c2CC2CCC3O2)s1` (stereo not drawn) [Compound 38, 3-(5-(tert-butyl)-1,3,4-thiadiazol-2-yl)-1-(pyrazin-2-yl)-1,4,5,6,7,8-hexahydro-5,8-epoxycyclohepta[c]pyrazole]: the EC50 in test [1] is 0.04 nM; in test [2], 283 nM. In addition, the Emax in test [1] (setting [4]) is 100%; in test [2] (setting [6]), 114%.
